Assays:
[1] = Drug uptake in brain; assay type: ADME, tissue-based
[2] = Oral bioavailability in rat at […]; assay type: ADME, organism-based; conditions: in vivo
[3] = AUC in plasma of rat at 10 mg/kg, po; assay type: ADME, organism-based; parameters: dose 10 mg/kg, route oral
Rattus norvegicus [4] = experiment: Volume of distribution at steady state in rat at […], po; assay type: ADME, organism-based; parameters: dose 2.5 mg/kg, route oral; conditions: in vivo
[5] = AUC in brain of rat at 10 mg/kg, po; assay type: ADME, organism-based; parameters: dose 10 mg/kg, route oral
Canis familiaris [6] = experiment: Volume of distribution at steady state in dog at 2 mg/kg, po; assay type: ADME, organism-based, Canis lupus familiaris; parameters: dose 2 mg/kg, route oral; conditions: in vivo
[7] = Oral bioavailability in dog at 2 mg/kg; assay type: ADME, organism-based, Canis lupus familiaris; conditions: in vivo
[8] = Oral bioavailability in dog at […]; assay type: ADME, organism-based, Canis lupus familiaris; conditions: in vivo
MDCK [9] = experiment: Apparent permeability across apical to basolateral side of dog MDCK cells expressing human MDR1; assay type: ADME, cell-based, Canis lupus familiaris
Canis familiaris [10] = experiment: Volume of distribution at steady state in dog at […], po; assay type: ADME, organism-based, Canis lupus familiaris; parameters: dose 2.5 mg/kg, route oral; conditions: in vivo
MDCK [11] = experiment: Apparent permeability across basolateral to apical side of dog MDCK cells expressing human MDR1; assay type: ADME, cell-based, Canis lupus familiaris
[12] = Oral bioavailability in rat at 2 mg/kg; assay type: ADME, organism-based; conditions: in vivo
Rattus norvegicus [13] = experiment: Volume of distribution at steady state in rat at 2 mg/kg, po; assay type: ADME, organism-based; parameters: dose 2 mg/kg, route oral; conditions: in vivo
[14] = Oral bioavailability in rat at 0.1 mg/kg; assay type: ADME, organism-based; conditions: in vivo
Rattus norvegicus [15] = experiment: Volume of distribution at steady state in rat at 0.1 mg/kg, po; assay type: ADME, organism-based; parameters: dose 0.1 mg/kg, route oral; conditions: in vivo
Canis familiaris [16] = experiment: Volume of distribution at steady state in dog at 0.5 mg/kg, po; assay type: ADME, organism-based, Canis lupus familiaris; parameters: dose 0.5 mg/kg, route oral; conditions: in vivo
[17] = Oral bioavailability in dog at 0.5 mg/kg; assay type: ADME, organism-based, Canis lupus familiaris; conditions: in vivo

SMILES | Drug uptake [1] | other results
Cc1cnccc1-c1nc(C)c2c(C)nc3ccc(OC(F)(F)F)cc3n12 | > 90% | –
COc1cc(F)cc2c1nc(C)c1c(C)nc(-c3sc(C)nc3C)n12 | > 90% | –
Cc1ccccc1-c1nc(C)c2c(C)nc3c(OCC(F)(F)F)cc(F)cc3n12 | > 90% | –
COc1ccc2nc(C)c3c(C)nc(-c4c(C)n[nH]c4C)n3c2n1 | > 90% | –
COc1ccc2nc(C)c3c(C)nc(-c4ccccc4C(F)(F)F)n3c2n1 | > 90% | –
COc1ccc2nc(C)c3c(C)nc(-c4sc(C)nc4C)n3c2n1 | > 90% | –
COc1ccc2nc(C)c3c(C(F)(F)F)nc(-c4ccccc4Cl)n3c2n1 | > 90% | –
COc1cc(N2CCOCC2)cc2c1nc(C)c1c(C)nc(-c3cccnc3C)n12 | > 90% | –
COc1ccc2nc(C)c3c(C)nc(-c4cc(Cl)ccc4Cl)n3c2n1 | > 90% | –
COc1ccc2nc(C)c3c(C)nc(-c4cnccc4C)n3c2n1 | > 90% | bioavailability [2]: 25%; AUC [3]: 747 ng·h/mL; Vdss (Rattus norvegicus [4]): 1 L/kg; AUC [5]: 866 ng·h/mL
COc1ccc2nc(C)c3c(C)nc(-c4cn[nH]c4)n3c2n1 | > 90% | –
Cc1ccncc1-c1nc(C)c2c(C)nc3ccc(C(F)(F)F)cc3n12 | > 90% | –
COc1ccc2nc(C)c3c(C)nc(-c4c(C)noc4C)n3c2n1 | > 90% | –
COc1ccc2nc(C)c3c(C)nc(-c4cccnc4)n3c2n1 | > 90% | –
COc1ccc(Cl)c(-c2nc(C(F)(F)F)c3c(C)nc4ccc(OC)nc4n23)c1 | > 90% | –
Cc1ccncc1-c1nc(C)c2c(C)nc3c(F)cc(F)cc3n12 | > 90% | –
CCOc1cc(F)cc2c1nc(C)c1c(C)nc(-c3ccccc3C)n12 | > 90% | –
Cc1ncccc1-c1nc(C)c2c(C)nc3ccc(C(F)(F)F)cc3n12 | > 90% | –
COc1ccc2nc(C)c3c(C)nc(-c4cnccc4C)n3c2c1 | > 90% | –
COc1ccc2nc(C)c3c(C(F)(F)F)nc(-c4cc(Cl)ccc4Cl)n3c2n1 | > 90% | –
COc1ccc2nc(C(F)F)c3c(C)nc(-c4ccccc4Cl)n3c2n1 | > 90% | –
COc1cc(OC)c2nc(C)c3c(C)nc(-c4cnccc4C)n3c2c1 | > 90% | Vdss (Canis familiaris [6]): 1.6 L/kg; bioavailability [2]: 25%; AUC [3]: 8850 ng·h/mL; Vdss (Rattus norvegicus [4]): 1.3 L/kg; bioavailability [7]: 100%; AUC [5]: 3280 ng·h/mL
COc1cc(OCc2ccccc2)cc2c1nc(C)c1c(C)nc(-c3cccnc3C)n12 | > 90% | –
Cc1cnccc1-c1nc(C)c2c(C)nc3ccc(F)cc3n12 | > 90% | –
Cc1ccncc1-c1nc(C)c2c(C)nc3ccc(OC(F)(F)F)cc3n12 | > 90% | –
COc1ccc2nc(C)c3c(C)nc(-c4ccccc4C)n3c2n1 | > 90% | –

SMILES | Drug uptake [1] | other results
COc1cc(F)cc2c1nc(C)c1c(C)nc(-c3ccccc3C)n12 | > 90% | –
COc1ccc2nc(C#N)c3c(C)nc(-c4ccccc4Cl)n3c2n1 | > 90% | –
COc1ccc2nc(C)c3c(C(F)(F)F)nc(-c4ccccc4C)n3c2n1 | > 90% | –
COc1cc(F)cc2c1nc(C)c1c(C)nc(-c3c(C)nn(C)c3C)n12 | > 90% | –
COc1ccc2nc(C)c3c(C)nc(-c4ccccc4OC)n3c2n1 | > 90% | –
Cc1ccccc1-c1nc(C)c2c(C)nc3c(O)cc(F)cc3n12 | > 90% | –
Cc1ccncc1-c1nc(C)c2c(C)nc3ccc(F)cc3n12 | > 90% | –
Cc1cnccc1-c1nc(C)c2c(C)nc3c(Cl)cc(C(F)(F)F)cc3n12 | > 90% | –
COc1ccc2nc(C)c3c(C)nc(-c4ccccc4OC(F)(F)F)n3c2n1 | > 90% | –
Cc1cnccc1-c1nc(C)c2c(C)nc3c(F)cc(F)cc3n12 | > 90% | –
COc1ccc2nc(C)c3c(C)nc(-c4cccn4C)n3c2n1 | > 90% | –
COc1cc(F)cc2c1nc(C)c1c(C)nc(-c3cccnc3C)n12 | > 90% | –
COc1ccc2nc(C)c3c(C)nc(-c4ccccc4C(N)=O)n3c2n1 | > 90% | –
Cc1ccncc1-c1nc(C)c2c(C)nc3ccccc3n12 | > 90% | –
COc1cc(F)cc2c1nc(C)c1c(C)nc(-c3ccncc3C)n12 | > 90% | bioavailability [2]: 27%; bioavailability [8]: 73%; AUC [3]: 3640 ng·h/mL; Vdss (Rattus norvegicus [4]): 0.9 L/kg; Papp (MDCK [9]): permeable; Vdss (Canis familiaris [10]): 6 L/kg; Papp (MDCK [11]): permeable; AUC [5]: 2370 ng·h/mL
COc1ccc2nc(C)c3c(C)nc(-c4cccnc4C)n3c2n1 | > 90% | –
COc1ccc2nc(C)c3c(C)nc(-c4cncnc4)n3c2n1 | > 90% | –
COc1ccc2nc(C)c3c(C)nc(-c4c(C)nn(C)c4C)n3c2n1 | > 90% | bioavailability [12]: 67%; Vdss (Rattus norvegicus [13]): 0.7 L/kg; AUC [3]: 4130 ng·h/mL; AUC [5]: 2940 ng·h/mL
COc1ccc2nc(C)c3c(C(F)(F)F)nc(-c4ccc(F)cc4Cl)n3c2n1 | > 90% | –
COc1ccc2nc(C)c3c(C)nc(-c4sccc4C)n3c2n1 | > 90% | –
COc1ccc2nc(C)c3c(C)nc(-c4ccc(C)nc4)n3c2n1 | > 90% | –
COc1cc(Cl)c2nc(C)c3c(C)nc(-c4ccncc4C)n3c2c1 | > 90% | –
COc1ccc2nc(C)c3c(C(F)(F)F)nc(-c4cc(F)ccc4Cl)n3c2n1 | > 90% | –
COc1ccc2nc(C)c3c(C)nc(-c4ccncc4C)n3c2n1 | > 90% | –
Cc1cnccc1-c1nc(C)c2c(C)nc3c(F)cc(OC(F)F)cc3n12 | > 90% | –
COc1cc(F)c2nc(C)c3c(C)nc(-c4c(C)nn(C)c4C)n3c2c1 | > 90% | –

SMILES | Drug uptake [1] | other results
COc1cc(F)c2nc(C)c3c(C)nc(-c4cccnc4C)n3c2c1 | > 90% | –
Cc1ccccc1-c1nc(C)c2c(C)nc3ccc(F)cc3n12 | > 90% | –
Cc1cnccc1-c1nc(C)c2c(C)nc3ccc(C(F)(F)F)cc3n12 | > 90% | –
COc1ccc2nc(C(F)(F)F)c3c(C)nc(-c4ccccc4Cl)n3c2n1 | > 90% | –
COc1ccc2nc(C)c3c(C)nc(-c4cccnc4OC)n3c2n1 | > 90% | –
COc1cc(F)cc2c1nc(C)c1c(C)nc(-c3cnccc3C)n12 | > 90% | –
COc1cc(F)c2nc(C)c3c(C)nc(-c4ccncc4C)n3c2c1 | > 90% | –
Cc1cnccc1-c1nc(C)c2c(C)nc3c(F)cc(OCC4CC4)cc3n12 | > 90% | –
Cc1ccncc1-c1nc(C)c2c(C)nc3ccc(Cl)cc3n12 | > 90% | –
COc1cc(C(F)(F)F)cc2c1nc(C)c1c(C)nc(-c3ccncc3C)n12 | > 90% | –
COc1cc(N2CCOCC2)cc2c1nc(C)c1c(C)nc(-c3ccncc3C)n12 | > 90% | –
COc1cc(OC)c2nc(C)c3c(C)nc(-c4cccnc4C)n3c2c1 | > 90% | –
Cc1ccccc1-c1nc(C)c2c(C)nc3c(OCC4CC4)cc(F)cc3n12 | > 90% | –
COc1ccc2nc(C)c3c(C)nc(-c4ccc(F)cc4Cl)n3c2n1 | > 90% | –
COc1ccc2nc(C)c3c(C)nc(-c4ccncc4Cl)n3c2n1 | > 90% | –
COc1ccc2nc(C)c3c(C)nc(-c4cnccc4OC)n3c2n1 | > 90% | –
Cc1cnccc1-c1nc(C)c2c(C)nc3c(F)cc(OCC(F)(F)F)cc3n12 | > 90% | –
Cc1ccccc1-c1nc(C)c2c(C)nc3c(OC(F)F)cc(F)cc3n12 | > 90% | –
COc1ccc2nc(C)c3c(C)nc(-c4cnccc4Cl)n3c2n1 | > 90% | –
COc1cc(F)c2nc(C)c3c(C)nc(-c4cnccc4C)n3c2c1 | > 90% | –
COc1cc(OC)c2nc(C)c3c(C)nc(-c4ccncc4C)n3c2c1 | > 90% | –
COc1ccc2nc(C)c3c(C)nc(-c4ccccc4Cl)n3c2n1 | > 90% | –
COc1cc(OC(F)F)cc2c1nc(C)c1c(C)nc(-c3cccnc3C)n12 | > 90% | bioavailability [14]: 83%; Vdss (Rattus norvegicus [15]): 0.6 L/kg; Vdss (Canis familiaris [16]): 1.1 L/kg; AUC [3]: 12700 ng·h/mL; bioavailability [17]: 84%; AUC [5]: 4400 ng·h/mL
Cc1cnccc1-c1nc(C)c2c(C)nc3ccc(Cl)cc3n12 | > 90% | –
